Measured values reported in patent publication US20240400564A1 (Syndax Pharmaceuticals, Inc, priority 2021, published 2024).

Assays:
Menin-MLL = biological target: T1, Menin-MLL (Homo sapiens, UniProt O00255); experiment: Determination of binding constants to Menin-MLL (HTRF, EC50 and Ki); settings: 0.25 nM H-FL-Menin, 3.2 nM FITC-MLL-4-43, 24 hr incubation
T1 sequence (O00255 1-610): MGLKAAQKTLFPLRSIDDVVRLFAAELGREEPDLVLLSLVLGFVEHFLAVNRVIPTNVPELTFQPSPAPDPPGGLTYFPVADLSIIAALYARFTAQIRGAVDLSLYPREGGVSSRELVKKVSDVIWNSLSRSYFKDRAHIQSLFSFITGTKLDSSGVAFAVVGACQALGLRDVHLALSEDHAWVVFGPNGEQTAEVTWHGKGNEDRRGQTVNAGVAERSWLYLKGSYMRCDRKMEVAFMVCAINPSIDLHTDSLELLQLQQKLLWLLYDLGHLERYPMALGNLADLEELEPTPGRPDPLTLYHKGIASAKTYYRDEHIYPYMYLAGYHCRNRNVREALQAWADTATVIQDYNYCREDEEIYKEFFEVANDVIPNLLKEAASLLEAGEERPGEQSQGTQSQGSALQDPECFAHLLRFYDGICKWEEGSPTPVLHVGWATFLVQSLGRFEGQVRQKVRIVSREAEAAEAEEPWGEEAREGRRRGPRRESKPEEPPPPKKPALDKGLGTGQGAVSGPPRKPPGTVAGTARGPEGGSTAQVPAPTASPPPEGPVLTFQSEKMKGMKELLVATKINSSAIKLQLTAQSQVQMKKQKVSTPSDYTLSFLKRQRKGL

[1] = tested on: MLLr leukemia cell line MV4-11; experiment: Cell proliferation assay MV4;11 (CellTiter-Glo, 72 hours); assay type: cell-based; settings: Homo sapiens; MV4-11 cells, 72 hours, CellTiter-Glo; read-out: MV4; 11 IC50
Procedure, shortened: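 Cells in IMDM/10% FBS, seeded from a 15,000 cells/ml suspension, were exposed for 72 h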

[2] = biological target: T2, human Menin and N-terminal portion of human MLL (amino acids 4-43) (Homo sapiens, UniProt O00255); experiment: Menin-MLL competition assay (HTRF); assay type: binding; settings: 1 hr incubation
T2 construct: H-FL-Menin diluted to 4 nM in assay buffer
T2 sequence (O00255 1-610): T1 sequence (O00255 1-610)
Procedure, shortened: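 HTRF competition: 1 nM His-tagged full-length Menin with 2 nM Tb-anti-His6 and 1 nM FITC-MLL(4-43), 1 h at room temperature in Tris pH 7.4 buffer with DTT, BSA, Triton X-100; 3.16-fold compound series, 2% DMSO. Ratio 520/485 normalized to DMSO and 1 μM reference-compound controls for IC50.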

hERG = hERG (Homo sapiens, UniProt Q12809); experiment: Patch clamp assay (hERG tail currents, whole-cell)
Chain of hERG (Q12809 whole entry): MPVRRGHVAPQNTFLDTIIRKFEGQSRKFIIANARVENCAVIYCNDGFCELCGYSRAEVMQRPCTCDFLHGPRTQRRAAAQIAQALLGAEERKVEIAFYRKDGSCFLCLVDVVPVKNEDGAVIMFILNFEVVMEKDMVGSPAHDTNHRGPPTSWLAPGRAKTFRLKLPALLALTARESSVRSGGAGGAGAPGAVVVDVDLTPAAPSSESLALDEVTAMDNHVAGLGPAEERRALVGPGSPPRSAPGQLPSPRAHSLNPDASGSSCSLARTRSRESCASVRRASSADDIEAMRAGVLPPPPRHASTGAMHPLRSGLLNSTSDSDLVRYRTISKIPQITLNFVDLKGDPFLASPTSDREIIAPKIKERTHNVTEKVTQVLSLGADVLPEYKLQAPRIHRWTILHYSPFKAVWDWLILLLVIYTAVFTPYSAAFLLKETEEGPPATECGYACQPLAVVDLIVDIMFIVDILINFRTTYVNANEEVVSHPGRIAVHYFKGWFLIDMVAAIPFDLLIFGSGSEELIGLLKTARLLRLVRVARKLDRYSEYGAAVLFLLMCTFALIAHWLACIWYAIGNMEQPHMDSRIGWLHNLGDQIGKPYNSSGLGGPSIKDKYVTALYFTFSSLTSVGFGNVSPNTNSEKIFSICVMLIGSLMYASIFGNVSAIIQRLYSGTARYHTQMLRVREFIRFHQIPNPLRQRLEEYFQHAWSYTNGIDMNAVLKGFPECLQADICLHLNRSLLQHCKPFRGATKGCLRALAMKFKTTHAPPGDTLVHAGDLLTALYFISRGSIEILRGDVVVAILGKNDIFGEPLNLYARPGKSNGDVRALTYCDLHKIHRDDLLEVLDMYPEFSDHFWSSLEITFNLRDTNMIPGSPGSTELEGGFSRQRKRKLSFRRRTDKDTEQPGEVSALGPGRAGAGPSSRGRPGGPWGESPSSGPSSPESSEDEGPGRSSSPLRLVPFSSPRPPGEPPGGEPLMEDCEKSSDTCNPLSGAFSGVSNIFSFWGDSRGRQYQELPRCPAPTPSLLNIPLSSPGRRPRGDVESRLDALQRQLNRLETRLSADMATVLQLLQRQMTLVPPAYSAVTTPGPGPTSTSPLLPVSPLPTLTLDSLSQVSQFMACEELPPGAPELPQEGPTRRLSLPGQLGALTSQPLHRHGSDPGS
Protocol: The 35 mm culture dishes upon which cells were seeded at a density allowing single cells to be recorded were placed on the dish holder of the microscope and continuously perfused (at approximately 1 mL/min) with the bath solution described in section 4.6. All solutions applied to cells including the pipette solution were maintained at room temperature (19° C. to 30° C.). After formation of a Gigaohm seal between the patch electrodes and individual hERG stably transfected HEK 293 cells (pipette resistance range: 2.0 MS to 7.0 MS; seal resistance range: >1GΩ) the cell membrane across the pipette tip was ruptured to assure electrical access to the cell interior (whole-cell patch-configuration). In case the quality of the seal was poor, the process of seal formation was repeated with a different cell and a new pipette. As soon as a stable seal could be established, hERG outward tail currents were measured upon depolarization of the cell membrane to +20 mV for 2 s (activation of channels) from a holding potential of −80 mV and upon subsequent repolarization to −40 mV for 3 s. This voltage protocol (as shown below) was run at least 10 times at intervals of 10 s. If current density was judged to be too low for measurement, another cell was recorded.
During wash-in of the test item the voltage protocol indicated above was run continuously again at 10 s intervals until the steady-state level of block was reached.
The IC50 was determined by fitting the dose response curve with a 2-parameter logistic function (amax=100%).

SMILES | Ki (Menin-MLL) [nM] | IC50 [1] [nM] | IC50 [2] [nM] | hERG % Remaining (hERG; 10 μM compound) | hERG % Remaining (hERG; 30 μM compound) | further results
CCS(=N)(=O)N[C@@H]1CC[C@@H](CN2CCC3(CC2)CN(c2ncncc2Oc2ccc(F)cc2C(=O)N(C(C)C)C(C)C)C3)OC1 (mixture of isomers) [Example 225, 2-((4-(7-(((2S,5R)-5-(Ethylsulfonoamidimidamido)tetrahydro-2H-pyran-2-yl)methyl)-2,7-diazaspiro[3.5]nonan-2-yl)pyrimidin-5-yl)oxy)-5-fluoro-N,N-diisopropylbenzamide] | < 1 | 100 to 1000 | – | – | – | –
CCN(C(=O)c1cc(F)ccc1Oc1cncnc1N1CC2(CCN(C[C@@H]3CC[C@@H](NS(=O)(=O)C4CCOC4)CO3)CC2)C1)C(C)C (stereo partly drawn) [Example 10, N-Ethyl-5-fluoro-N-isopropyl-2-((4-(7-(((2S,5R)-5-((tetrahydrofuran)-3-sulfonamido)tetrahydro-2H-pyran-2-yl)methyl)-2,7-diazaspiro[3.5]nonan-2-yl)pyrimidin-5-yl)oxy)benzamide] | – | < 100 | < 100 | – | – | –
CC(C)N(C(=O)c1cc(F)ccc1Oc1cncnc1N1CC2(CCN(C[C@@H]3CC[C@@H](NS(C)(=O)=O)CO3)CC2)C1)C1CC1 [Example 18, N-Cyclopropyl-5-fluoro-N-isopropyl-2-((4-(7-(((2S,5R)-5-(methylsulfonamido)tetrahydro-2H-pyran-2-yl)methyl)-2,7-diazaspiro[3.5]nonan-2-yl)pyrimidin-5-yl)oxy)benzamide] | – | < 100 | < 100 | – | – | –
CCCNC(=O)N[C@@H]1CC[C@@H](CN2CCC3(CC2)CN(c2ncncc2Oc2ccc(F)cc2C(=O)N(CC)C(C)C)C3)OC1 [Example 38, N-Ethyl-5-fluoro-N-isopropyl-2-((4-(7-(((2S,5R)-5-(3-propylureido)tetrahydro-2H-pyran-2-yl)methyl)-2,7-diazaspiro[3.5]nonan-2-yl)pyrimidin-5-yl)oxy)benzamide] | – | – | < 100 | – | – | Menin-MLL Ki HTRF Assay: EC50 (nM) (Menin-MLL): ++ (250 nM and <100 nM)
CC(C)N(CC(F)F)C(=O)c1cc(F)ccc1Oc1cncnc1N1CC2(CCN(C[C@@H]3CC[C@@H](NS(=O)(=O)C4CC4)CO3)CC2)C1 [Example 47, 2-((4-(7-(((2S,5R)-5-(Cyclopropanesulfonamido)tetrahydro-2H-pyran-2-yl)methyl)-2,7-diazaspiro[3.5]nonan-2-yl)pyrimidin-5-yl)oxy)-N-(2,2-difluoroethyl)-5-fluoro-N-isopropylbenzamide] | – | – | < 100 | +++ (≥66%) | ++ (233% and ≤66%) | –
CCN(C(=O)c1cc(F)ccc1Oc1cncnc1N1CC2(CCN(C[C@@H]3CC[C@@H](NS(=O)(=O)N(C)C)CO3)CC2)C1)C(C)C [Example 49, 2-((4-(7-(((2S,5R)-5-((N,N-Dimethylsulfamoyl)amino)tetrahydro-2H-pyran-2-yl)methyl)-2,7-diazaspiro[3.5]nonan-2-yl)pyrimidin-5-yl)oxy)-N-ethyl-5-fluoro-N-isopropylbenzamide] | – | – | < 100 | +++ (≥66%) | +++ (≥66%) | –
CCS(=O)(=O)N[C@@H]1CC[C@@H](CN2CCC3(CC2)CN(c2ncncc2Oc2ccc(F)cc2C(=O)N(C(C)C)[C@H]2C[C@@H](O)C2)C3)OC1 [Example 50, 2-((4-(7-(((2S,5R)-5-(Ethylsulfonamido)tetrahydro-2H-pyran-2-yl)methyl)-2,7-diazaspiro[3.5]nonan-2-yl)pyrimidin-5-yl)oxy)-5-fluoro-N-((1s,3s)-3-hydroxycyclobutyl)-N-isopropylbenzamide] | – | < 100 | < 100 | – | – | –
CCN(C(=O)c1cc(F)ccc1Oc1cncnc1N1CC2(CCN(C[C@H]3CC[C@H](NS(=O)(=O)CC)CO3)CC2)C1)C(C)C [Example 52, N-Ethyl-2-((4-(7-(((2R,5S)-5-(ethylsulfonamido)tetrahydro-2H-pyran-2-yl)methyl)-2,7-diazaspiro[3.5]nonan-2-yl)pyrimidin-5-yl)oxy)-5-fluoro-N-isopropylbenzamide] | – | – | – | – | – | EC50 (Menin-MLL): ≤ 50 nM
CC(C)N(C(=O)c1cc(F)ccc1Oc1cncnc1N1CC2(CCN(C[C@@H]3CC[C@@H](NS(=O)(=O)C(C)C)CO3)CC2)C1)[C@@H]1CCOC1 [Example 132, 5-Fluoro-N-isopropyl-2-((4-(7-(((2S,5R)-5-((1-methylethyl)sulfonamido)tetrahydro-2H-pyran-2-yl)methyl)-2,7-diazaspiro[3.5]nonan-2-yl)pyrimidin-5-yl)oxy)-N-((R)-tetrahydrofuran-3-yl)benzamide] | – | – | – | – | – | EC50 (Menin-MLL): 111 nM
CC(C)N(C(=O)c1cc(F)ccc1Oc1cncnc1N1CC2(CCN(C[C@@H]3CC[C@@H](NS(=O)(=O)C4CC4)CO3)CC2)C1)[C@H]1CCOC1 [Example 176, 2-((4-(7-(((2S,5R)-5-(Cyclopropanesulfonamido)tetrahydro-2H-pyran-2-yl)methyl)-2,7-diazaspiro[3.5]nonan-2-yl)pyrimidin-5-yl)oxy)-5-fluoro-N-isopropyl-N-((S)-tetrahydrofuran-3-yl)benzamide] | < 1 | < 100 | – | +++ (≥66%) | +++ (≥66%) | IC50 (hERG): > 50000 nM; hERG % Remaining (hERG; 100 μM compound): +++ (≥66%)
CC(C)N(C(=O)c1cc(F)ccc1Oc1cncnc1N1CC2(CCN(C[C@@H]3CC[C@@H](NS(=O)(=O)N(C)C)CO3)CC2)C1)[C@H]1CCOC1 [Example 177, 2-((4-(7-(((2S,5R)-5-((N,N-Dimethylsulfamoyl)amino)tetrahydro-2H-pyran-2-yl)methyl)-2,7-diazaspiro[3.5]nonan-2-yl)pyrimidin-5-yl)oxy)-5-fluoro-N-isopropyl-N-((S)-tetrahydrofuran-3-yl)benzamide] | < 1 | < 100 | – | +++ (≥66%) | +++ (≥66%) | –
CCN(C(=O)c1cc(F)ccc1Oc1cncnc1N1CC2(CCN(C[C@@H]3CC[C@@H](NC(=O)Nc4ccccc4)CO3)CC2)C1)C(C)C [Example 215, N-Ethyl-5-fluoro-N-isopropyl-2-((4-(7-(((2S,5R)-5-(3-phenylureido)tetrahydro-2H-pyran-2-yl)methyl)-2,7-diazaspiro[3.5]nonan-2-yl)pyrimidin-5-yl)oxy)benzamide] | – | – | – | – | – | Menin-MLL Ki HTRF Assay: EC50 (nM) (Menin-MLL): ++ (250 nM and <100 nM)
CCS(=O)(=O)N[C@@H]1CC[C@@H](CN2CCC3(CC2)CN(c2ncncc2Oc2ccc(F)cc2C(=O)N(C(C)C)[C@H]2C[C@H](F)C2)C3)OC1 [Example 243, 2-((4-(7-(((2S,5R)-5-(Ethylsulfonamido)tetrahydro-2H-pyran-2-yl)methyl)-2,7-diazaspiro[3.5]nonan-2-yl)pyrimidin-5-yl)oxy)-5-fluoro-N-((1r,3r)-3-fluorocyclobutyl)-N-isopropylbenzamide] | < 1 | < 100 | – | – | – | –
CCS(=O)(=O)N[C@@H]1CC[C@@H](CN2CCC3(CC2)CN(c2ncncc2Oc2ccc(F)cc2C(=O)N(C(C)C)[C@H]2C[C@@H](F)C2)C3)OC1 [Example 244, 2-((4-(7-(((2S,5R)-5-(ethylsulfonamido)tetrahydro-2H-pyran-2-yl)methyl)-2,7-diazaspiro[3.5]nonan-2-yl)pyrimidin-5-yl)oxy)-5-fluoro-N-((1s,3s)-3-fluorocyclobutyl)-N-isopropylbenzamide] | < 1 | < 100 | – | +++ (≥66%) | ++ (233% and ≤66%) | –
CCS(=O)(=O)N[C@@H]1CC[C@@H](CN2CCC3(CC2)CN(c2ncncc2Oc2ccc(F)cc2C(=O)N(C(C)C)[C@H]2C[C@@H](C(F)F)C2)C3)OC1 [Example 245, N-((1s,3s)-3-(difluoromethyl)cyclobutyl)-2-((4-(7-(((2S,5R)-5-(ethylsulfonamido)tetrahydro-2H-pyran-2-yl)methyl)-2,7-diazaspiro[3.5]nonan-2-yl)pyrimidin-5-yl)oxy)-5-fluoro-N-isopropylbenzamide] | < 1 | < 100 | – | – | – | –
CCS(=O)(=O)N[C@@H]1CC[C@@H](CN2CCC3(CC2)CN(c2ncncc2Oc2ccc(F)cc2C(=O)N(C(C)C)[C@H]2C[C@H](C(F)F)C2)C3)OC1 [Example 246, N-((1r,3r)-3-(Difluoromethyl)cyclobutyl)-2-((4-(7-(((2S,5R)-5-(ethylsulfonamido)tetrahydro-2H-pyran-2-yl)methyl)-2,7-diazaspiro[3.5]nonan-2-yl)pyrimidin-5-yl)oxy)-5-fluoro-N-isopropylbenzamide] | < 1 | < 100 | – | – | – | –
